Data set [1] concerns RIN5F (Rat Insulinoma) cells. The data set can be described thus: In vitro glucose-dependent insulin secretion (RIN5F cell assay screening protocol). It counts as cell-based. Particulars: 16.7 mM glucose load.
Data set [2] has as its target T1, Human GLP-1 receptor (Homo sapiens, UniProt P43220).
T1 construct: The full-length cDNA was cloned in pcDNA3.1(+); expressed in transfected cells
As to the kind of experiment: In vitro Human GLP-1 R agonist activity (cyclic AMP determination) in CHO/human GLP1R cells. It counts as cell-based.

For data set [3], the target named is DPP IV (Homo sapiens, UniProt P27487). The data set can be described thus: Stability against DPP IV enzyme. It counts as in vitro ADME. Particulars: 37° C.; for % degradation of peptidomimetics in 24 h when incubated with DPP-IV enzyme: 2 μM peptidomimetic; for half-life at 2 μM: DPP IV enzyme, pH 7.8, 2 μM peptidomimetic, read-out: half-life (t1/2) when incubated with DPP-IV enzyme. Here is the method:
(§1) Reactions were terminated by the addition of TFA/H2O (15 mL, 10% (v/v)). […] The column was equilibrated with TFA/H20, at a flow rate of 1 mL/min.

Data set [4] in a line: Stability in human plasma. It is filed as in vitro ADME. As to conditions: 2 μM peptidomimetic, pooled human plasma, 37° C.; for half-life at 2 μM: pH 7.8, read-out: half-life (t1/2) when incubated with human plasma. The protocol: as §1
Data set [5] is described as follows: Stability in simulated gastric fluid. It counts as in vitro ADME. Particulars: 2 μM peptidomimetic, simulated gastric fluid pH 1.5, 37° C.; for half-life at 2 μM: read-out: half-life (t1/2) when incubated with simulated gastric fluid. The protocol:
as §1

Data set [6] in a line: Stability in simulated intestinal fluid. It counts as in vitro ADME. As to conditions: 2 μM peptidomimetic, simulated intestinal fluid pH 7.5, 37° C.; for half-life at 2 μM: read-out: half-life (t1/2) when incubated with simulated intestinal fluid. Here is the method: as §1
Data set [7] in a line: Stability in liver microsomes. It counts as in vitro ADME. Particulars: 2 μM peptidomimetic, human liver microsomes, 37° C.; for half-life at 2 μM: pH 7.8, read-out: half-life (t1/2) when incubated with liver microsomes. Here is the method:
as §1
In general terms: Liver microsomes are a subcellular fraction often used to study metabolism.

T1 sequence (P43220 24-463): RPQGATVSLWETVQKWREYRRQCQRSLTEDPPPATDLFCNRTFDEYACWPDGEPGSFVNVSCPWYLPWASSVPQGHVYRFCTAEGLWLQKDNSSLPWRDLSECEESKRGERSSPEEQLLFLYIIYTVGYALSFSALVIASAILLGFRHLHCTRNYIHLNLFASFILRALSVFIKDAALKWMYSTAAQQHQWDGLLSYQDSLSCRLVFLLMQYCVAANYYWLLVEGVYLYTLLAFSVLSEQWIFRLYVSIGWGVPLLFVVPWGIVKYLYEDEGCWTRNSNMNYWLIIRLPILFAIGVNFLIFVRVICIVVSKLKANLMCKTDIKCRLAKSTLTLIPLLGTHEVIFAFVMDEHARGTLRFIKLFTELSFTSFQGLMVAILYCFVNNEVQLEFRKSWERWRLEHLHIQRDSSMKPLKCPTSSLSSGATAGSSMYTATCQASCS
Sequence of DPP IV (P27487 whole entry, species assumed): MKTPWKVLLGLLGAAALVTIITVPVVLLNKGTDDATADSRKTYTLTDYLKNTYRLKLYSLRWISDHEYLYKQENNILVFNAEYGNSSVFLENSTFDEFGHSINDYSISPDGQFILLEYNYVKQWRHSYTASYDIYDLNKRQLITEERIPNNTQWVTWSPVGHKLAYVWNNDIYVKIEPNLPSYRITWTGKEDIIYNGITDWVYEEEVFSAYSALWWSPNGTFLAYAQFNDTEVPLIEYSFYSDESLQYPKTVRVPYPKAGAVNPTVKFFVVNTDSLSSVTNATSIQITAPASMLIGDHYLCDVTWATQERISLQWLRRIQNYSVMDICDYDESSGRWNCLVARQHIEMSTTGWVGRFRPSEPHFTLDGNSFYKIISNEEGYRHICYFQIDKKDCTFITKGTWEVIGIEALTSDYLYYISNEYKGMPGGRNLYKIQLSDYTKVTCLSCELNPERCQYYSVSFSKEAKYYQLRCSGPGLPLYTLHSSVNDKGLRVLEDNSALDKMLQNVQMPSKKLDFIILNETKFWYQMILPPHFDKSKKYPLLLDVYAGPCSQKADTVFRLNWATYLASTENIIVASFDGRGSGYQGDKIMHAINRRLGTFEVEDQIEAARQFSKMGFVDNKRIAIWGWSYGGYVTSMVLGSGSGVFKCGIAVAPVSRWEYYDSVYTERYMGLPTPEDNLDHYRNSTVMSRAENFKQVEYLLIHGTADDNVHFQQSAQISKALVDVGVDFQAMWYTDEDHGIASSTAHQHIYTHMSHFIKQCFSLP

On to `CCc1cc(OC)ccc1-c1ccc(CC(NC(=O)[C@H](CC(=O)O)NC(=O)[C@H](CO)NC(=O)[C@@H](NC(=O)[C@H](Cc2ccccc2)NC(=O)[C@@H](NC(=O)CNC(=O)C(CCC#N)NC(=O)C(C)(C)NC(=O)[C@@H](N)Cc2c[nH]cn2)[C@@H](C)O)[C@@H](C)O)C(=O)NC(CCCc2ccc(C(F)(F)F)cc2F)C(N)=O)cc1` (single isomer, unassigned) [compound 81], for which the Insulin secretion in data set [1] (0.1 nM test compd.) stood at 17.1 ± 0.15 pg/µg/h; in data set [1] (1 nM test compd.) it was 23.1 ± 0.12 pg/µg/h; in data set [1] (10 nM test compd.), 37.0 ± 0.19 pg/µg/h. Also, the “Human GLP-1 R activity (cAMP release), % activity with respect to control” value was determined as 69 ± 0.09% in data set [2] (1 nM test compound); 98 ± 0.07% in data set [2] (10 nM test compound); 99 ± 0.04% in data set [2] (100 nM test compound); 99 ± 0.01% in data set [2] (1 μM test compound); 99 ± 0.08% in data set [2] (10 μM test compound). Moreover, the “% degradation of peptidomimetics in 24 h when incubated with DPP-IV enzyme” value (shortened to “% degradation … with DPP-IV enzyme”) in data set [3] amounted to 00%. The half-life at 2 μM was more than 24 h in data set [3]; more than 24 h in data set [4]; 4 h in data set [5]; more than 24 h in data set [6]; 2 h in data set [7]. Moreover, the “% degradation of peptidomimetics in 24 h when incubated with human plasma” value (shortened to “% degradation … with human plasma”) in data set [4] is recorded as 00%. In addition, in data set [5], the “% degradation of peptidomimetics in 24 h when incubated with simulated gastric fluid” value (from here on “% degradation … with simulated gastric fluid”) was 50%. In data set [6], the “% degradation of peptidomimetics in 24 h when incubated with simulated intestinal fluid” value (“% degradation … with simulated intestinal fluid” below) is 00%. For the same molecule, in data set [7], the “% degradation of peptidomimetics in 24 h when incubated with liver microsomes” value (from here on “% degradation … with liver microsomes”) came out at 86%.

As for `CCc1cc(OC)ccc1-c1ccc(CC(NC(=O)[C@H](CC(=O)O)NC(=O)[C@H](CO)NC(=O)[C@@H](NC(=O)[C@H](Cc2ccccc2)NC(=O)[C@@H](NC(=O)CNC(=O)C(CCC#N)NC(=O)C(C)(C)NC(=O)[C@@H](N)Cc2c[nH]cn2)[C@@H](C)O)[C@@H](C)O)C(=O)NC(CCCc2ccc(F)cc2C(F)(F)F)C(N)=O)cc1` (single isomer, unassigned) [compound 80], the Insulin secretion in data set [1] (0.1 nM test compd.) came to 16.2 ± 0.13 pg/µg/h; in data set [1] (1 nM test compd.), 22.4 ± 0.19 pg/µg/h; in data set [1] (10 nM test compd.), 36.2 ± 0.09 pg/µg/h. The “Human GLP-1 R activity (cAMP release), % activity with respect to control” value in data set [2] (1 nM test compound) was 66 ± 0.022%; in data set [2] (10 nM test compound), 97 ± 0.46%; in data set [2] (100 nM test compound), 99 ± 0.41%; in data set [2] (1 μM test compound), 99 ± 0.66%; in data set [2] (10 μM test compound), 99 ± 0.03%. In addition, the “% degradation … with DPP-IV enzyme” value in data set [3] worked out at 72%. For the same molecule, in data set [4], the “half-life (t1/2) when incubated with human plasma” value was “(9) h”. In data set [4], the “% degradation … with human plasma” value worked out at 70%. The “% degradation … with simulated gastric fluid” value in data set [5] is recorded as 100%. Also, the half-life at 2 μM in data set [5], in data set [6] and in data set [7] was 0.5 h in each case. Also, the “% degradation … with simulated intestinal fluid” value in data set [6] is given as 100%. Further, in data set [7], the “% degradation … with liver microsomes” value amounted to 100%.

Consider `CCc1cc(OC)ccc1-c1ccc(CC(NC(=O)[C@H](CC(=O)O)NC(=O)[C@H](CO)NC(=O)[C@@H](NC(=O)[C@H](Cc2ccccc2)NC(=O)[C@@H](NC(=O)CNC(=O)C(CCC#N)NC(=O)C(C)(C)NC(=O)[C@@H](N)Cc2c[nH]cn2)[C@@H](C)O)[C@@H](C)O)C(=O)NC(CCCc2ccccc2Cl)C(N)=O)cc1` (single isomer, unassigned) [compound 82], for which the figures for the Insulin secretion in data set [1] (0.1 nM test compd.), in data set [1] (1 nM test compd.) and in data set [1] (10 nM test compd.) were 16.9 ± 0.22 pg/µg/h, 22.8 ± 0.31 pg/µg/h and 36.7 ± 0.34 pg/µg/h, respectively. In addition, the “Human GLP-1 R activity (cAMP release), % activity with respect to control” value in data set [2] (1 nM test compound) was determined as 78 ± 0.12%; in data set [2] (10 nM test compound), 99 ± 0.15%; in data set [2] (100 nM test compound), 99 ± 0.18%; in data set [2] (1 μM test compound), 99 ± 0.03%; in data set [2] (10 μM test compound), 99 ± 0.09%. Also, the “% degradation … with DPP-IV enzyme” value in data set [3] is 00%. For the same molecule, the half-life at 2 μM in data set [3] was more than 24 h; in data set [4], more than 24 h; in data set [5], 4 h; in data set [6], more than 24 h; in data set [7] it was 2 h. Further, the “% degradation … with human plasma” value in data set [4] is listed as 00%. For the same molecule, the “% degradation … with simulated gastric fluid” value in data set [5] was 55%. Further, the “% degradation … with simulated intestinal fluid” value in data set [6] is 00%. Moreover, in data set [7], the “% degradation … with liver microsomes” value was found to be 84%.

For `CCc1cc(OC)ccc1-c1ccc(CC(NC(=O)[C@H](CC(=O)O)NC(=O)[C@H](CO)NC(=O)[C@@H](NC(=O)[C@H](Cc2ccccc2)NC(=O)[C@@H](NC(=O)CNC(=O)C(CCC#N)NC(=O)C(C)(C)NC(=O)[C@@H](N)Cc2c[nH]cn2)[C@@H](C)O)[C@@H](C)O)C(=O)NC(CCCc2ccc(Cl)cc2C)C(N)=O)cc1` (single isomer, unassigned) [compound 32], the Insulin secretion turned out to be 12.1 ± 0.52 pg/µg/h in data set [1] (0.1 nM test compd.), 14.1 ± 0.16 pg/µg/h in data set [1] (1 nM test compd.) and 28.0 ± 0.36 pg/µg/h in data set [1] (10 nM test compd.). In addition, the “Human GLP-1 R activity (cAMP release), % activity with respect to control” value came out at 39 ± 0.11% in data set [2] (1 nM test compound); 80 ± 0.09% in data set [2] (10 nM test compound); 88 ± 0.06% in data set [2] (100 nM test compound); 96 ± 0.14% in data set [2] (1 μM test compound); 99 ± 0.19% in data set [2] (10 μM test compound). In addition, in data set [3], the “% degradation … with DPP-IV enzyme” value is given as 75%. Moreover, in data set [4], the “half-life (t1/2) when incubated with human plasma” value is “(9) h”. Also, in data set [4], the “% degradation … with human plasma” value worked out at 77%. In addition, the “% degradation … with simulated gastric fluid” value in data set [5] was 100%. In addition, the half-life at 2 μM in data set [5], in data set [6] and in data set [7] was 0.5 h each time. Besides, the “% degradation … with simulated intestinal fluid” value in data set [6] is 100%. Further, the “% degradation … with liver microsomes” value in data set [7] was 100%.

(Values after patent US8883963B2 (Cadila Healthcare Limited, priority 2007, dated 2014).)
